# According to EP0412158A1, “ONCOSTATIC DRUG” (priority 1987, dated 1988):
# Several values for one entry are separate records, joined by “and”; a condition that tells them apart may be missing. Equal values may be shown once. Marks after values point to notes of the source that are not given here.
# Legend:
# methyl cholanthrene A [1] = experiment: Methyl cholanthrene A tumor, evaluation by elongation of period of survival (Examples 31, 34 and 35); format: in vivo, female BALB/C mice
# Experimental: The active compounds, M to 0, mentioned above were severally dissolved in distilled water to obtain aqueous solutions containing the compounds in a fixed concentration of 10 mg/ml. To be specific, to female BALB/C mice (five weeks old) to which methyl cholanthrene A had been transplanted in a ratio of 1.0 x 10^5 cells per mouse, […] for 9 consecutive days to determine the mice's periods of survival. For comparison, mice to which no aqueous solution was administered and mice to which aminonitrosourea was administered were similarly tested.
# [2] = test system: methyl cholanthrene A tumor; experiment: Methyl cholanthrene A tumor, evaluation by size of tumor (Examples 31 to 33); format: in vivo, female BALB/C mice; parameters: Average weight of tumor ± SE / Range of average tumor weight after elapse of 21 days ± SE: unit not given here; conditions: 25 mg/kg, ip × 9
# Experimental: A heteropoly acid salt, Na5[IM06O24]•34H2O (Compound M), and other compounds (Compounds N and O ) were severally dissolved in distilled water to obtain aqueous solutions containing the salts in a fixed concentration of 10 mg/ml. To female BALB/C mice (five weeks old) to which methyl cholanthrene A tumor had been transplanted, the aqueous solutions were administered to test the compounds for antineoplastic activity. To be specific, the methyl cholanthrene A was transplanted to the mice at a ratio of 1.0 x 10^5 cells per mouse and the aqueous solutions were administered ([…]) for 9 consecutive days by intraperitoneal injection. On elapse of 14 and 21 days after the stop of the administration, the sizes of tumors in the mice were measured. For comparison, mice to which no aqueous solution was administered and mice to which aminonitrosourea was administered were similarly tested.
# [3] = test system: human breast cancer (MX-1); experiment: Human breast cancer MX-1, SRC method (Examples 29 and 30); format: in vivo, female ICR/cd-1 mice
# [4] = test system: methyl cholanthrene A tumor; experiment: Antineoplastic activity against transplanted methyl cholanthrene A tumor, evaluation by size of tumor (Examples 1 to 6); format: in vivo, female BALB/C mice; conditions: No. 3, ip×9; for Change in body weight: body weight 13 days after transplantation; for T/control: tumor weight
# Experimental: By dissolving alkylammonium salt of polymolybdic acid [NH3C3H7(iso)]s [Mo7O24] • 3H2O (Compound A) and other compounds (Compounds B to D) severally in distilled water, aqueous solutions containing the compounds in a fixed concentration of 10 mg/ml were obtained. These aqueous solutions were administered to female BALB/C mice (five weeks old) to which methyl cholanthrene A tumor had been transplanted to test the compounds for antineoplastic activity. To be specific, methyl cholanthrene A was transplanted to the mice in a ratio of 1.0 x 10^5 cells per mouse and the aqueous solutions were continuously administered to the mice by intraperitoneal injection ([…]) for nine days. On elapse of 14 days following the start of the administration, the tumors in the mice were measured. For comparison, mice to which no antineoplastic .drug was administered and mice to which aminonitroso urea was administered were tested by following the procedure described above.
# methyl cholanthrene A [5] = experiment: Methyl cholanthrene A tumor, evaluation by extension of period of survival (Examples 7 to 11); format: in vivo, female BALB/C mice; conditions: No. 2; for Average number of days of survival / Number of toxically killed mice/total number of mice / T/control: ip×9; for Change in body weight: ip×9, D1~D9; for T/control: days of survival
# Experimental: The aforementioned compounds, A to D, were severally dissolved in distilled water to obtain aqueous solutions containing the compounds in a fixed concentration of 10 mg/ml. To the female BALB/C mice (five weeks old) to which methyl cholanthrene A had been transplanted in a ratio of 1.0 x 10^5 cells per mouse, […] to determine the mices' periods of survival. For comparison, mice to which no antineoplastic drug was administered and mice to which aminonitroso urea was administered were similarly tested.
# MM-46 breast cancer [6] = format: in vivo, female C3H/He mice; conditions: 100 mg/kg, ip × 9
# Experimental: The active compounds, I to L, mentioned above were severally dissolved in distilled water to obtain aqueous solutions containing the compounds in a fixed concentration of 10 mg/ml. To female C3H/He mice (five weeks old) to which the MM-46 breast cancer had been transplanted in a ratio of 1.0 x 10^5 cells per mouse, the aqueous solutions were continuously administered at a dose of 100 mg/kg of body weight by intraperitoneal injection for nine days to determine the mice's periods of survival. For comparison, mice to which no aqueous solution was administered and mice to which aminonitrosourea was administered were similarly tested.
# MM-46 breast cancer [7] = experiment: MM-46 breast cancer, evaluation by size of tumor (Examples 21 to 24); format: in vivo, female C3H/He mice; conditions: for Average weight of tumor / Number of tumorless mice /total number of mice / T/control: 100 mg/kg; for Average weight of tumor / Number of tumorless mice /total number of mice: ip × 9; for T/control: ip×9, tumor weight
# Experimental: A polymolybdate, K6[Mo7022(02)2]8H20 (Compound I), and the aforementioned other compounds (Compounds J to L) were severally dissolved in distilled water to obtain aqueous solutions containing the compounds in a fixed concentration of 10 mg/mi. To female C3H/He mice (five weeks old) to which MM-46 breast cancer had been transplanted, the aqueous solutions were administered to test the compounds for antineoplastic activity. To be more specific, the MM-46 breast cancer was transplanted to the mice at a ratio of 5.0 x 10^5 cells per mouse and the aqueous solutions were continuously administered (at a dose of 100 mg/kg of body weight) by intraperineal injection for nine days. On elapse of 14 days after the stop of the administration, the size of tumor in the mice was measured. For comparison, mice to which the aqueous solution was not administered and mice to which aminonitroso urea was administered were similarly tested.
# [8] = 30 mg/kg ip(×5), individual mice
# [9] = 100 mg/kg ip(×5), individual mice
molecule,measurement,setting,value
[NH4]3 H6 [CoMo6O24] • 7H20 [Compound N],Average number of days of survival ±SE,"methyl cholanthrene A [1]; 25 mg/kg, ip × 9",39.30±3.73(10)*** * days
same,ILS,"methyl cholanthrene A [1]; 25 mg/kg, ip × 9",57.0%
same,Number of mice of no tumor/total number of mice,"methyl cholanthrene A [1]; 25 mg/kg, ip × 9, observed 60 days after transplantation",2/10
same,Change in body weight after elapse of 10 days,"methyl cholanthrene A [1]; mouse, in vivo",(+)0.56
same,Range of average tumor weight after elapse of 21 days ± SE,[2],693.6±144.3 (9)
same,Average weight of tumor ± SE,[2]; after elapse of 14 days,448.5±166.0 (10)
same,T/C,[2]; tumor weight after 14 days,0.600
same,T/C,[2]; tumor weight after 21 days,0.301
"O=c1[nH]cc(F)c(=O)[nH]1 [Compound 5-FU, 5-fluorouracil]",T/C,[3]; 30 mg/kg ip(×5),56.48* %
same,T7/To,"[3]; 30 mg/kg ip(×5), group mean",0.779±0.072
same,T7/To,[3]; [8],0.839 and 0.576 and 0.917 and 0.786
same,Tumor 7 days after transplantation (T7),[3]; [8],13.0 omu and 7.5 omu and 16.5 omu and 11.0 omu
"O.O.[NH4+].[NH4+].[NH4+].[NH4+].[NH4+].[NH4+].[O]=[Mo](=[O])([O-])[O][Mo](=[O])(=[O])[O][Mo](=[O])([O-])([O-])[O][Mo](=[O])(=[O])[O][Mo](=[O])([O-])([O-])[O][Mo](=[O])(=[O])[O][Mo](=[O])(=[O])[O-] [Compound D, [NH4]6 [Mo7O24]. 2H20]",Average weight of tumor,[4]; 100 mg/kg,1790.5±189.3(8) mg
same,Number of tumorless mice /total number of mice,[4]; 100 mg/kg,0/8
same,Change in body weight,[4]; 100 mg/kg,+1.20 g
same,T/control,[4]; 100 mg/kg,0.695
same,Average number of days of survival,methyl cholanthrene A [5]; 100 mg/kg,33.3±2.7(8) days
same,Number of toxically killed mice/total number of mice,methyl cholanthrene A [5]; 100 mg/kg,0/8
same,Change in body weight,methyl cholanthrene A [5]; 100 mg/kg,+1.20 g
same,T/control,methyl cholanthrene A [5]; 100 mg/kg,133.3
[NH3 (iso)]6 [Mo7O23(O2)] • 5H20 [Compound L],Average number of days of survival,MM-46 breast cancer [6],32.1±3.9(8) days
same,Average weight of tumor after 14 days,MM-46 breast cancer [6],1086 ± 132(8) mg
same,Ratio of elongation of life (5),MM-46 breast cancer [6],94.5
same,Average weight of tumor,MM-46 breast cancer [7],1085.6±133.2** ** mg
same,Number of tumorless mice /total number of mice,MM-46 breast cancer [7],0/8
same,T/control,MM-46 breast cancer [7],00.380
K6 [Mo7O22(O2)2] • 8H2O [Compound I],Average number of days of survival,MM-46 breast cancer [6],33.1±2.9(8) days
same,Average weight of tumor after 14 days,MM-46 breast cancer [6],1135 ±185(8) mg
same,Ratio of elongation of life (5),MM-46 breast cancer [6],100.8
same,ratio of elongation of life,MM-46 breast cancer [6],100.8%
same,Average weight of tumor,MM-46 breast cancer [7],1134.9±184.5(1 0) mg
same,Number of tumorless mice /total number of mice,MM-46 breast cancer [7],0/10
same,T/control,MM-46 breast cancer [7],0.397
same,toxicity,"MM-46 breast cancer [7]; 100 mg/kg.ip for nine days, judged by increase of body weight, result in words",very low toxicity
same,T/C,[3]; 100 mg/kg ip(×5),57.28 8* %
same,T7/To,"[3]; 100 mg/kg ip(×5), group mean",0.790±0.077
same,W7/Wo,"[3]; 100 mg/kg ip(×5), group mean",1.068±0.008
same,Body weight 7 days after transplantation (W7),[3]; [9],21.0 g and 20.5 g and 21.4 g and 20.6 g
same,T7/To,[3]; [9],0.875 and 0.941 and 0.760 and 0.586
same,Tumor 7 days after transplantation (T7),[3]; [9],10.5 omu and 8.0 omu and 9.5 omu and 8.5 omu
same,W7/Wo,[3]; [9],1.061 and 1.057 and 1.092 and 1.062
same,antineoplastic activity,[3]; result in words,strong antineoplastic activity
[NH3C3H7(iso)]4 (Mo13O40] 1/3 • [Mo12O40H2]2/3 [Compound B],Average weight of tumor,[4]; 25 mg/kg,1753.1±132.4(9) mg
same,Number of tumorless mice /total number of mice,[4]; 25 mg/kg,0/9
same,Change in body weight,[4]; 25 mg/kg,-0.36 g
same,T/control,[4]; 25 mg/kg,0.681
same,Average number of days of survival,methyl cholanthrene A [5]; 25 mg/kg,29.3±1.9(9) days
same,Number of toxically killed mice/total number of mice,methyl cholanthrene A [5]; 25 mg/kg,0/9
same,Change in body weight,methyl cholanthrene A [5]; 25 mg/kg,-0.36 g
same,T/control,methyl cholanthrene A [5]; 25 mg/kg,130.4
